# Target: Aβ42 (Homo sapiens, UniProt P05067)
# Test: Th-T (thioflavin-T) assay of Aβ42 aggregation
# Assay type: biochemical
# Conditions: for Th-T assay plate reading, mean of three wells (Supplementary Fig. 47): source data, Ab alone and No Ab as controls
# Aβ42, sequence (P05067 672-713): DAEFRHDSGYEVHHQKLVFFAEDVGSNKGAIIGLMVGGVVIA
smiles,measurement,setting,value
C=C1CCC2C(C)(CC(=O)C=C(C)C)C(O)CCC2(C)C1Cc1c(OC)oc(CO)c(C)c1=O (centres unmarked) [Compound 19],"Th-T fluorescence, mean of three wells","Aβ42 aggregation time course, reading M117",3.6075
same,"Th-T fluorescence, mean of three wells","Aβ42 aggregation time course, reading M118",3.626
same,"Th-T fluorescence, mean of three wells","Aβ42 aggregation time course, reading M119",3.587
same,"Th-T fluorescence, mean of three wells","Aβ42 aggregation time course, reading M120",3.625
same,"Th-T fluorescence, mean of three wells","Aβ42 aggregation time course, reading M121",3.6213
same,"Th-T fluorescence, mean of three wells","Aβ42 aggregation time course, reading M122",3.6222
same,"Th-T fluorescence, mean of three wells","Aβ42 aggregation time course, reading M123",3.606
same,"Th-T fluorescence, mean of three wells","Aβ42 aggregation time course, reading M124",3.5846
same,"Th-T fluorescence, mean of three wells","Aβ42 aggregation time course, reading M125",3.61
same,"Th-T fluorescence, mean of three wells","Aβ42 aggregation time course, reading M126",3.596
same,"Th-T fluorescence, mean of three wells","Aβ42 aggregation time course, reading M127",3.587
same,"Th-T fluorescence, mean of three wells","Aβ42 aggregation time course, reading M128",3.613
same,"Th-T fluorescence, mean of three wells","Aβ42 aggregation time course, reading M129",3.627
same,"Th-T fluorescence, mean of three wells","Aβ42 aggregation time course, reading M130",3.59
same,"Th-T fluorescence, mean of three wells","Aβ42 aggregation time course, reading M131",3.596
same,"Th-T fluorescence, mean of three wells","Aβ42 aggregation time course, reading M132",3.652
same,"Th-T fluorescence, mean of three wells","Aβ42 aggregation time course, reading M133",3.618
same,"Th-T fluorescence, mean of three wells","Aβ42 aggregation time course, reading M134",3.586
same,"Th-T fluorescence, mean of three wells","Aβ42 aggregation time course, reading M135",3.587
same,"Th-T fluorescence, mean of three wells","Aβ42 aggregation time course, reading M136",3.617
same,"Th-T fluorescence, mean of three wells","Supplementary Fig. 47, reading M137",3.599
same,"Th-T fluorescence, mean of three wells","Supplementary Fig. 47, reading M138",3.596
same,"Th-T fluorescence, mean of three wells","Supplementary Fig. 47, reading M139",3.59
same,"Th-T fluorescence, mean of three wells","Supplementary Fig. 47, reading M140",3.5958
same,"Th-T fluorescence, mean of three wells","Supplementary Fig. 47, reading M141",3.577
same,"Th-T fluorescence, mean of three wells","Supplementary Fig. 47, reading M142",3.567
same,"Th-T fluorescence, mean of three wells","Supplementary Fig. 47, reading M143",3.559
same,"Th-T fluorescence, mean of three wells","Supplementary Fig. 47, reading M144",3.573
same,"Th-T fluorescence, mean of three wells","Supplementary Fig. 47, reading M145",3.546
same,"Th-T fluorescence, mean of three wells","Supplementary Fig. 47 source data, measurement M37 of time course",3.411
same,"Th-T fluorescence, mean of three wells","Supplementary Fig. 47 source data, measurement M38 of time course",3.42
same,"Th-T fluorescence, mean of three wells","Supplementary Fig. 47 source data, measurement M39 of time course",3.449
same,"Th-T fluorescence, mean of three wells","Supplementary Fig. 47 source data, measurement M40 of time course",3.484
same,"Th-T fluorescence, mean of three wells","Supplementary Fig. 47 source data, measurement M41 of time course",3.495
same,"Th-T fluorescence, mean of three wells","Supplementary Fig. 47 source data, measurement M42 of time course",3.511
same,"Th-T fluorescence, mean of three wells","Supplementary Fig. 47 source data, measurement M43 of time course",3.5042
same,"Th-T fluorescence, mean of three wells","Supplementary Fig. 47 source data, measurement M44 of time course",3.529
same,"Th-T fluorescence, mean of three wells","Supplementary Fig. 47 source data, measurement M45 of time course",3.546
same,"Th-T fluorescence, mean of three wells","Supplementary Fig. 47 source data, measurement M46 of time course",3.545
same,"Th-T fluorescence, mean of three wells","Supplementary Fig. 47 source data, measurement M47 of time course",3.542
same,"Th-T fluorescence, mean of three wells","Supplementary Fig. 47 source data, measurement M48 of time course",3.567
same,"Th-T fluorescence, mean of three wells","Supplementary Fig. 47 source data, measurement M49 of time course",3.564
same,"Th-T fluorescence, mean of three wells","Supplementary Fig. 47 source data, measurement M50 of time course",3.566
same,"Th-T fluorescence, mean of three wells","Supplementary Fig. 47 source data, measurement M51 of time course",3.621
same,"Th-T fluorescence, mean of three wells","Supplementary Fig. 47 source data, measurement M52 of time course",3.57
same,"Th-T fluorescence, mean of three wells","Supplementary Fig. 47 source data, measurement M53 of time course",3.596
same,"Th-T fluorescence, mean of three wells","Supplementary Fig. 47 source data, measurement M54 of time course",3.5732
same,"Th-T fluorescence, mean of three wells","Supplementary Fig. 47 source data, measurement M55 of time course",3.592
same,"Th-T fluorescence, mean of three wells","Supplementary Fig. 47 source data, measurement M56 of time course",3.662
same,"Th-T assay plate reading, mean of three wells (Supplementary Fig. 47)",measurement M1,0.2658
same,"Th-T assay plate reading, mean of three wells (Supplementary Fig. 47)",measurement M2,0.2823
same,"Th-T assay plate reading, mean of three wells (Supplementary Fig. 47)",measurement M3,0.3173
same,"Th-T assay plate reading, mean of three wells (Supplementary Fig. 47)",measurement M4,0.3889
same,"Th-T assay plate reading, mean of three wells (Supplementary Fig. 47)",measurement M5,0.4637
same,"Th-T assay plate reading, mean of three wells (Supplementary Fig. 47)",measurement M6,0.5676
same,"Th-T assay plate reading, mean of three wells (Supplementary Fig. 47)",measurement M7,0.5832
same,"Th-T assay plate reading, mean of three wells (Supplementary Fig. 47)",measurement M8,0.6497
same,"Th-T assay plate reading, mean of three wells (Supplementary Fig. 47)",measurement M9,0.6755
same,"Th-T assay plate reading, mean of three wells (Supplementary Fig. 47)",measurement M10,0.7219
same,"Th-T assay plate reading, mean of three wells (Supplementary Fig. 47)",measurement M11,0.7495
same,"Th-T assay plate reading, mean of three wells (Supplementary Fig. 47)",measurement M12,0.7862
same,"Th-T assay plate reading, mean of three wells (Supplementary Fig. 47)",measurement M13,0.8322
same,"Th-T assay plate reading, mean of three wells (Supplementary Fig. 47)",measurement M14,0.8734
same,"Th-T assay plate reading, mean of three wells (Supplementary Fig. 47)",measurement M15,0.9399
same,"Th-T assay plate reading, mean of three wells (Supplementary Fig. 47)",measurement M16,1.015
same,"Th-T fluorescence, mean of three wells","reading M17, Supplementary Fig. 47 source data",1.1695
same,"Th-T fluorescence, mean of three wells","reading M18, Supplementary Fig. 47 source data",1.449
same,"Th-T fluorescence, mean of three wells","reading M19, Supplementary Fig. 47 source data",1.7884
same,"Th-T fluorescence, mean of three wells","reading M20, Supplementary Fig. 47 source data",2.128
same,"Th-T fluorescence, mean of three wells","reading M21, Supplementary Fig. 47 source data",2.459
same,"Th-T fluorescence, mean of three wells","reading M22, Supplementary Fig. 47 source data",2.644
same,"Th-T fluorescence, mean of three wells","reading M23, Supplementary Fig. 47 source data",2.778
same,"Th-T fluorescence, mean of three wells","reading M24, Supplementary Fig. 47 source data",2.868
same,"Th-T fluorescence, mean of three wells","reading M25, Supplementary Fig. 47 source data",2.94
same,"Th-T fluorescence, mean of three wells","reading M26, Supplementary Fig. 47 source data",3.016
same,"Th-T fluorescence, mean of three wells","reading M27, Supplementary Fig. 47 source data",3.079
same,"Th-T fluorescence, mean of three wells","reading M28, Supplementary Fig. 47 source data",3.14
same,"Th-T fluorescence, mean of three wells","reading M29, Supplementary Fig. 47 source data",3.171
same,"Th-T fluorescence, mean of three wells","reading M30, Supplementary Fig. 47 source data",3.2173
same,"Th-T fluorescence, mean of three wells","reading M31, Supplementary Fig. 47 source data",3.256
same,"Th-T fluorescence, mean of three wells","reading M32, Supplementary Fig. 47 source data",3.313
same,"Th-T fluorescence, mean of three wells","reading M33, Supplementary Fig. 47 source data",3.3097
same,"Th-T fluorescence, mean of three wells","reading M34, Supplementary Fig. 47 source data",3.333
same,"Th-T fluorescence, mean of three wells","reading M35, Supplementary Fig. 47 source data",3.364
same,"Th-T fluorescence, mean of three wells","reading M36, Supplementary Fig. 47 source data",3.374
same,"Th-T fluorescence, mean of three wells","time course, reading M57",3.606
same,"Th-T fluorescence, mean of three wells","time course, reading M58",3.638
same,"Th-T fluorescence, mean of three wells","time course, reading M59",3.598
same,"Th-T fluorescence, mean of three wells","time course, reading M60",3.6035
same,"Th-T fluorescence, mean of three wells","time course, reading M61",3.616
same,"Th-T fluorescence, mean of three wells","time course, reading M62",3.642
same,"Th-T fluorescence, mean of three wells","time course, reading M63",3.645
same,"Th-T fluorescence, mean of three wells","time course, reading M64",3.635
same,"Th-T fluorescence, mean of three wells","time course, reading M65",3.622
same,"Th-T fluorescence, mean of three wells","time course, reading M66",3.629
same,"Th-T fluorescence, mean of three wells","time course, reading M67",3.626
same,"Th-T fluorescence, mean of three wells","time-course reading M97, Supplementary Fig. 47 source data",3.5997
same,"Th-T fluorescence, mean of three wells","time-course reading M98, Supplementary Fig. 47 source data",3.623
same,"Th-T fluorescence, mean of three wells","time-course reading M99, Supplementary Fig. 47 source data",3.625
same,"Th-T fluorescence, mean of three wells","time-course reading M100, Supplementary Fig. 47 source data",3.601
same,"Th-T fluorescence, mean of three wells","time-course reading M101, Supplementary Fig. 47 source data",3.5892
same,"Th-T fluorescence, mean of three wells","time-course reading M102, Supplementary Fig. 47 source data",3.633
same,"Th-T fluorescence, mean of three wells","time-course reading M103, Supplementary Fig. 47 source data",3.645
same,"Th-T fluorescence, mean of three wells","time-course reading M104, Supplementary Fig. 47 source data",3.661
same,"Th-T fluorescence, mean of three wells","time-course reading M105, Supplementary Fig. 47 source data",3.626
same,"Th-T fluorescence, mean of three wells","time-course reading M106, Supplementary Fig. 47 source data",3.655
same,"Th-T fluorescence, mean of three wells","time-course reading M107, Supplementary Fig. 47 source data",3.608
same,"Th-T fluorescence, mean of three wells","time-course reading M108, Supplementary Fig. 47 source data",3.642
same,"Th-T fluorescence, mean of three wells","time-course reading M109, Supplementary Fig. 47 source data",3.6107
same,"Th-T fluorescence, mean of three wells","time-course reading M110, Supplementary Fig. 47 source data",3.642
same,"Th-T fluorescence, mean of three wells","time-course reading M111, Supplementary Fig. 47 source data",3.621
same,"Th-T fluorescence, mean of three wells","time-course reading M112, Supplementary Fig. 47 source data",3.604
same,"Th-T fluorescence, mean of three wells","time-course reading M113, Supplementary Fig. 47 source data",3.595
same,"Th-T fluorescence, mean of three wells","time-course reading M114, Supplementary Fig. 47 source data",3.63
same,"Th-T fluorescence, mean of three wells","time-course reading M115, Supplementary Fig. 47 source data",3.6287
same,"Th-T fluorescence, mean of three wells","time-course reading M116, Supplementary Fig. 47 source data",3.617

# Reference: paper PMC7156458, “Synthetic biology based construction of biological activity-related library of fungal decalin-containing diterpenoid pyrones” (Nature Communications, 2020)
